Source: patent US9487529B2, “Macrocyclic compounds as ALK, FAK and JAK2 inhibitors” (Cephalon, Inc., priority 2011, dated 2016)
Counter-ions that a name gives are not always drawn. Like-named read-outs stand apart in the source and are kept apart here.

What was measured:
[1] = cc_pd bond, CH3CN, 120.0 °C
[2] = target: T1, baculovirus-expressed ALK (Homo sapiens, UniProt Q9UM73); test: ALK Kinase Assay (ELISA/TRF); assay type: biochemical; conditions: 1 μM ATP (Km level)
T1 construct: host or cells: baculovirus expression system
T1 sequence (Q9UM73 19-1620): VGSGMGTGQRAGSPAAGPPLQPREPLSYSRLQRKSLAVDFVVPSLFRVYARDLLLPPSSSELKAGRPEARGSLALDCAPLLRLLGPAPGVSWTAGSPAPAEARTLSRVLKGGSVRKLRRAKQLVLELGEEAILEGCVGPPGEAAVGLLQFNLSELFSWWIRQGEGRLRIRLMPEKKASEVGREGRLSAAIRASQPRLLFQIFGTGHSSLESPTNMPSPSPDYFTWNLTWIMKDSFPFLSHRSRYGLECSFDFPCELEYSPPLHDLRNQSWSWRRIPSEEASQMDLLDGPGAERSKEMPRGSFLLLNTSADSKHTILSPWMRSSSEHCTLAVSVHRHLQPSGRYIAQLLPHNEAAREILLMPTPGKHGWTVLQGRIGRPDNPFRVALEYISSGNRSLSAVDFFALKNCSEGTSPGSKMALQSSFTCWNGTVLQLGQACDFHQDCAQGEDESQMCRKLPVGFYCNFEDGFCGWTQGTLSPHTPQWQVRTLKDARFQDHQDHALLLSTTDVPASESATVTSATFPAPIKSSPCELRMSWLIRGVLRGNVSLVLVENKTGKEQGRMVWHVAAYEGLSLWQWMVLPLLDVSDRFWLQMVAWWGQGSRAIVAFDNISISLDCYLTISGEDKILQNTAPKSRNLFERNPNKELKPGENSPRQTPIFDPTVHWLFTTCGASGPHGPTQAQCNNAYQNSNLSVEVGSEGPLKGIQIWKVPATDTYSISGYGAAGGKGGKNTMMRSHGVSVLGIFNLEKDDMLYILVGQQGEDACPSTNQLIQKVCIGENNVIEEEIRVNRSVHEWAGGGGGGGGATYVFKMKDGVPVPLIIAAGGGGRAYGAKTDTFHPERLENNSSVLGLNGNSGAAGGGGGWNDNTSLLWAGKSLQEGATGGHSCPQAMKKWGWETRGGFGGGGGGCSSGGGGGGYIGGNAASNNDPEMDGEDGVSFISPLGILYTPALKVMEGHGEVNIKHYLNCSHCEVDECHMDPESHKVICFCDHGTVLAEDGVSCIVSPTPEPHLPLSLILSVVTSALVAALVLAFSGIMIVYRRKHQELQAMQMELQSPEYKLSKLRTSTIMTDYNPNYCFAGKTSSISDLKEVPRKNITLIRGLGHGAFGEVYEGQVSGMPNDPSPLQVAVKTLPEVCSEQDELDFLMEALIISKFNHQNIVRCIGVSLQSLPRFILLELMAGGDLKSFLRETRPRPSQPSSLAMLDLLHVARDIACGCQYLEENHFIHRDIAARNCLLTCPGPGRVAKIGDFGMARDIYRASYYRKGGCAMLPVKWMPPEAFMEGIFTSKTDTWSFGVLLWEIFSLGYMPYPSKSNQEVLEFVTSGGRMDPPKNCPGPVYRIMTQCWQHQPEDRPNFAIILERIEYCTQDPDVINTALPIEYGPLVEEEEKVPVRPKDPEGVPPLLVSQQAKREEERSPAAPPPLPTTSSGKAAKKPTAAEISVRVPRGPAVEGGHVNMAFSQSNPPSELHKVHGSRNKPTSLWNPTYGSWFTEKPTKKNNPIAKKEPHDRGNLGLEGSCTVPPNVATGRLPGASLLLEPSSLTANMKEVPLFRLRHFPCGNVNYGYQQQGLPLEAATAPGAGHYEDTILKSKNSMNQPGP
Method: Briefly, each 96-well plate was coated with 100 μL/well of 10 μg/mL substrate (GST-PLC-γ) in Tris-buffered saline (TBS). […] The reaction was initiated by adding enzyme (30 ng/mL ALK) and was allowed to proceed at 37° C. for 15 minutes. Detection of the phosphorylated product was performed by adding 100 μL/well of Eu—N1 labeled PT66 antibody (Perkin Elmer #AD0041). […] Data analysis was performed using ActivityBase (IDBS, Guilford, UK). IC50 values were calculated by plotting percent inhibition versus log10 of the concentration of compound and fitting to the nonlinear regression sigmoidal dose-response (variable slope) equation in XLFit (IDBS, Guilford, UK).

[3] = target: T2, human insulin receptor cytoplasmic domain (βIRCD) (Homo sapiens, UniProt P06213); test: Insulin Receptor Kinase Assay (TRF); assay type: biochemical; conditions: 20 μM ATP, read-out: IR IC50
T2 construct: human insulin receptor cytoplasmic domain (βIRCD); host or cells: baculovirus expression system
T2 sequence (P06213 980-1382 limits assumed): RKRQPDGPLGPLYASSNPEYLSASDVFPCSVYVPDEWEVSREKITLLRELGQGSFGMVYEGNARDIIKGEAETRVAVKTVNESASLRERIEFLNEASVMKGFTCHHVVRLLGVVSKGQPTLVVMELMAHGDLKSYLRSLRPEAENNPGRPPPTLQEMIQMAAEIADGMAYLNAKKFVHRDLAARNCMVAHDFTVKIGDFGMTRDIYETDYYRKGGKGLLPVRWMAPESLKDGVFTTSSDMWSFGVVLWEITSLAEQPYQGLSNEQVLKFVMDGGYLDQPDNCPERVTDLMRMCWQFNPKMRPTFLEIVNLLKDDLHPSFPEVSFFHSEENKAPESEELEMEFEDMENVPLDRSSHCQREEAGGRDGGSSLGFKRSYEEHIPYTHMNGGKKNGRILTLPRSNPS
Method: Example compounds were tested for their ability to inhibit the kinase activity of baculovirus-expressed human insulin receptor cytoplasmic domain (βIRCD) using the TRF assay as described above for ALK. Phosphorylation of the substrate, recombinant GST-PLC-γ, was detected with a europium-labeled anti-phosphotyrosine antibody and measured by TRF. Each 96-well plate (Greiner#655074) was coated with 100 μL/well of 20 μg/mL substrate solution in TBS. The IR assay mixture (total volume=100 μL/well) consisting of 20 mM HEPES (pH 7.2), 20 μM ATP, 5 mM MnCl2, 0.1% BSA, and test compound (diluted in DMSO; 2.5% DMSO final in assay) was added to the assay plates. Enzyme (20 ng/mL βIRCD) was added and the reaction was allowed to proceed at room temperature for 20 minutes. Detection of the phosphorylated product was performed by adding 100 μL/well of Eu—N1 labeled PY100 antibody (PerkinElmer#AD0160; diluted 1:10,000 in TBS-T containing 0.25% BSA). Incubation at 37° C. for 1 hour was followed by addition of 50 μL enhancement solution (Wallace#1244-105). Plates were agitated for 10 minutes and the fluorescence was measured using the PerkinElmer EnVision™ 2102 or 2104 multi-label plate reader.
(§1) Data analysis was performed using ActivityBase (IDBS, Guilford, UK). IC50 values were calculated by plotting percent inhibition versus log10 of the concentration of compound and fitting to the nonlinear regression sigmoidal dose-response (variable slope) equation in XLFit (IDBS, Guilford, UK).

[4] = target: T3, baculovirus-expressed JAK2 (Homo sapiens, UniProt O60674); test: JAK2 Kinase Assay (TRF detection); assay type: biochemical; conditions: 0.2 μM ATP; average of two or more determinations; class symbols
T3 construct: host or cells: baculovirus expression system
T3 sequence (O60674 whole entry): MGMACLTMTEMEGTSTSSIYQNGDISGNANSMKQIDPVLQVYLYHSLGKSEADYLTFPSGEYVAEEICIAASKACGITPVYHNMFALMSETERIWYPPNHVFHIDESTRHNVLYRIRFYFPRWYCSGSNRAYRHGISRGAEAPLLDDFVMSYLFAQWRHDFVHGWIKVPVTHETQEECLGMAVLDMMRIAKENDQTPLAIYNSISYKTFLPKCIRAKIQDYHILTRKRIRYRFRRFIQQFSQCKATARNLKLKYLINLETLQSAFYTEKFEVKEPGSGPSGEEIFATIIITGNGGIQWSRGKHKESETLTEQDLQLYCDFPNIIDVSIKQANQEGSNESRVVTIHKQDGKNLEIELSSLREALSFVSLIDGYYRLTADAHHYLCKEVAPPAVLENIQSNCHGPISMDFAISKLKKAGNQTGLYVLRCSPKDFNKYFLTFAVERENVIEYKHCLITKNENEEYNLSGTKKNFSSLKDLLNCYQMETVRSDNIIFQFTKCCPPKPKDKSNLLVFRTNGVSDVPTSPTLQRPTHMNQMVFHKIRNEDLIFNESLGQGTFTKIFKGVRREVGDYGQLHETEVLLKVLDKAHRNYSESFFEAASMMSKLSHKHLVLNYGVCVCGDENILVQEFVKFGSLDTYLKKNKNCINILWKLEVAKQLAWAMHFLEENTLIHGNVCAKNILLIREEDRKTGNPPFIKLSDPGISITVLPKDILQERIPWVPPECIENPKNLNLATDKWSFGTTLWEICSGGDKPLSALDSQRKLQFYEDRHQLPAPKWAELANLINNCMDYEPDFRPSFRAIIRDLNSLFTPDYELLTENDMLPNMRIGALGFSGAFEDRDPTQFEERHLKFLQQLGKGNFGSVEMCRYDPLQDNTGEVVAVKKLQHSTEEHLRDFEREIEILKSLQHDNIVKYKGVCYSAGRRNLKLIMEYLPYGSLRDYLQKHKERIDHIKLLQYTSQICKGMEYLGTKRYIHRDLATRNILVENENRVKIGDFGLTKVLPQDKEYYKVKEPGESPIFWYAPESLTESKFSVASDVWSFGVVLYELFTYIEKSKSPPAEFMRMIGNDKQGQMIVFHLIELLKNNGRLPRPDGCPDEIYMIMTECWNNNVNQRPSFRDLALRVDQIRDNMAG
Method: Compounds were tested for their ability to inhibit the kinase activity of baculovirus-expressed JAK2 using the TRF detection system. IC50 runs were conducted in 96-well Costar high binding plates (Corning Costar #3922, Corning, N.Y.). The plates were coated first with 100 μL/well of 10 μg/mL Neutravidin (Pierce #31000, Rockford, Ill.) in TBS at 37° C. for 2 hours, followed by 100 μL/well of 1 μg/mL 15-mer peptide substrate (biotinyl-amino-hexanoyl-EQEDEPEGDYFEWLE-amide, Infinity Biotech Research and Resource, Aston, Pa.) at 37° C. for another hour. The JAK2 assay mixture (total volume=100 μL/well) consisting of 20 mM HEPES, pH 7.2, 0.2 μM ATP, 1 mM MnCl2, 0.1% BSA, and test compound (diluted in DMSO; 2.5% DMSO final in assay) was then added to the assay plate. Enzyme (15 ng/ml JAK2) was added and the reaction was allowed to proceed at room temperature for 20 minutes. Detection of the phosphorylated product was performed by adding 100 μL/well of Eu—N1 labeled PY100 antibody (PerkinElmer Life Sciences #AD0041, Boston, Mass.). Incubation at the room temperature then proceeded for 1 hour, followed by addition of 100 μl enhancement solution (PerkinElmer Life Sciences #1244-105, Boston, Mass.). The plate was gently agitated and after thirty minutes, the fluorescence of the resulting solution was measured using the PerkinElmer EnVision™ 2102 (or 2104) multi-label plate reader.
as §1

recombinant human FAK = target: T4, recombinant human FAK (Homo sapiens, UniProt Q05397); test: FAK Enzyme Assay (TRF detection); assay type: biochemical; conditions: 10 μM ATP
T4 construct: purchased Invitrogen PV3832; host or cells: baculovirus expression system
T4 sequence (Q05397 whole entry): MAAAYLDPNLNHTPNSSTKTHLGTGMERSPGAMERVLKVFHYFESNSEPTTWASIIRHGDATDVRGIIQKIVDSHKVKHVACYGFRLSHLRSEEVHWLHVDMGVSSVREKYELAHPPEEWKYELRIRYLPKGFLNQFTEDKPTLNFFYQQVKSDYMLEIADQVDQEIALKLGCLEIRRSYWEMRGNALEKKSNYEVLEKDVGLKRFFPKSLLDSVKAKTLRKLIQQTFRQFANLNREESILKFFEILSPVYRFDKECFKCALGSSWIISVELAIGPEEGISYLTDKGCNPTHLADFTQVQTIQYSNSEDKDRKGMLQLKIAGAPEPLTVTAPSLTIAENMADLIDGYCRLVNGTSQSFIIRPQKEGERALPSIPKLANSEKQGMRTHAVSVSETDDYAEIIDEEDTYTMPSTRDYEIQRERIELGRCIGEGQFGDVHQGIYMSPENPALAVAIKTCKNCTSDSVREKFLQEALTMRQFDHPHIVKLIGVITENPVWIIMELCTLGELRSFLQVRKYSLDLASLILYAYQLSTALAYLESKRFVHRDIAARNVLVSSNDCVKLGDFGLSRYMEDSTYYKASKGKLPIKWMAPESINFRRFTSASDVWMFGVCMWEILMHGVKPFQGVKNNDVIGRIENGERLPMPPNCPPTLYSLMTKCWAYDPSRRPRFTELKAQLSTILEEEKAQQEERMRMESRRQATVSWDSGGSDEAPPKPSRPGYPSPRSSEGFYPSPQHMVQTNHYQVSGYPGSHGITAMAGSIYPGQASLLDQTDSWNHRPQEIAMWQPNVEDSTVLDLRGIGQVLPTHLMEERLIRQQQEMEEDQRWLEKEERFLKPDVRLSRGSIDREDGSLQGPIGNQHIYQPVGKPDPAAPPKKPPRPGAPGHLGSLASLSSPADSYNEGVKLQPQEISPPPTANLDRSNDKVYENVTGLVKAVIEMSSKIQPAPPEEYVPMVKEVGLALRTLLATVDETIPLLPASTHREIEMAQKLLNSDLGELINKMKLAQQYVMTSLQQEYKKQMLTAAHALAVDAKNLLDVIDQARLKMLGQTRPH
Method: Example compounds were tested for their ability to inhibit the kinase activity of baculovirus-expressed recombinant human FAK using the TRF detection system as described above for JAK2. IC50 runs were performed in 96-well Costar high binding plates (#3922). The plates were coated first with 100 μL/well of 10 μg/mL neutravidin in TBS at 37° C. for 2 h, followed by 100 μL/well of 1 μg/mL 15-mer peptide substrate (biotinyl-amino-hexanoyl-EQEDEPEGDYFEWLE-amide) at 37° C. for another hour. The FAK assay mixture (total volume=100 μL/well) consisting of 20 mM HEPES, pH 7.2, 10 μM ATP, 5 mM MgCl2, 0.5 mM DTT, 0.1% BSA, and test compound (diluted in DMSO; 2.5% DMSO final in assay) was then added to the assay plate. Enzyme (10 ng/mL FAK, Invitrogen #PV3832) was added and the reaction was allowed to proceed at room temperature for 30 minutes. Detection of the phosphorylated product was performed by adding 100 μL/well of Eu—N1 labeled PY100 antibody (diluted 1:75000 in antibody dilution buffer). Samples were incubated at room temperature for 1 hour, followed by addition of 100 μL enhancement solution. Plates were agitated for 10 minutes and fluorescence of the resulting solution measured using the PerkinElmer EnVision™ 2102 (or 2104) multi-label plate reader.
as §1

[5] = average of two or more determinations, class symbols

IC50 [2, 5] [nM] | IC50 [3, 5] [nM] | IC50 [4] [nM] | IC50 (recombinant human FAK; [5]) [nM] | IC50 ([3]; given as numeric bound) [nM] | IC50 ([2]; given as numeric bound) [nM] | IC50 (recombinant human FAK; given as numeric bound) [nM] | Compound | ring closure, yield of all isomers ([1]; from C=Cc1ccc(S(=O)(=O)C(C)C)c(Nc2nc(Nc3cc(Br)c(N4CCN(C)CC4)cc3OC)ncc2Cl)c1, Pd(OAc)2 / tri-o-tolylphosphine, Et3N, 31.3 mM, 0.25 h) [%] | ring closure, yield of all isomers ([1]; from C=Cc1cc(Nc2ncc(Cl)c(Nc3cc(Br)ccc3N(C)S(C)(=O)=O)n2)ccc1N1CCN(C)CC1, Pd(OAc)2 / tri-o-tolylphosphine, Et3N, 65.0 mM, 2.75 h) [%] | ring closure, yield of all isomers ([1]; from C=Cc1cc(Nc2ncc(Cl)c(Nc3cc(Br)ccc3S(=O)(=O)C(C)C)n2)ccc1N1CCN(C)CC1, Pd(OAc)2 / P(o-tolyl)3 / Et3N, 65.0 mM, 2.0 h) [%]
– | – | – | – | – | – | – | COc1cc(N2CCN(C)CC2)c2cc1Nc1ncc(Cl)c(n1)Nc1cc(ccc1S(=O)(=O)C(C)C)/C=C\2 | 63 | – | –
< 10 | 101 to 1000 | 101 to 1000 | < 10 | – | – | – | COc1cc(C2CCN(C)CC2)c2cc1Nc1ncc(Cl)c(n1)Nc1cc(ccc1N(C)S(C)(=O)=O)CC2 [Example 8, 6-Chloro-10-(2-methanesulfonyl-methyl-amino)-17-(1-methyl-piperidin-4-yl)-19-methoxy-2,4,8,22-tetraazatetracyclo[14.3.1.1^3,7.1^9,13]docosa-1(20),3(22),4,6,9(21),10,12,16,18-nonaene Trifluoroacetate (1:1)] | – | – | –
10 to 100 | – | < 10 | < 10 | > 2000 | – | – | CN1CCN(c2ccc3cc2/C=C\c2ccc(N(C)S(C)(=O)=O)c(c2)Nc2nc(ncc2Cl)N3)CC1 [Example 9, (14Z)-6-Chloro-10-(2-methanesulfonyl-methyl-amino)-17-(4-methylpiperazin-1-yl)-2,4,8,22-tetraazatetracyclo[14.3.1.1^3,7.1^9,13]docosa-1(20),3(22),4,6,9(21),10,12,14,16,18-decaene Trifluoroacetate (1:1)] | – | 37 | –
10 to 100 | 1000 to 10000 | < 10 | 10 to 100 | – | – | – | CC(C)S(=O)(=O)c1ccc2cc1Nc1nc(ncc1Cl)Nc1ccc(N3CCN(C)CC3)c(c1)/C=C\2 [Example 11, (14Z)-6-Chloro-10-(propane-2-sulfonyl)-17-(4-methylpiperazin-1-yl)-2,4,8,22-tetraazatetracyclo[14.3.1.1^3,7.1^9,13]docosa-1(20),3(22),4,6,9(21),10,12,14,16,18-decaene Trifluoroacetate (1:1)] | – | – | 32
> 10000 | > 10000 | < 10 | > 10000 | – | – | – | COc1ccc2cc1Nc1nc(ncc1Cl)Nc1ccc(N3CCOCC3)c(c1)CC2 [Example 21, 6-Chloro-10-methoxy-17-(morpholin-4-yl)-2,4,8,22-tetraazatetracyclo[14.3.1.1^3,7.1^9,13]docosa-1(20),3(22),4,6,9(21),10,12,16,18-nonaene Trifluoroacetate (1:1)] | – | – | –
101 to 1000 | 1000 to 10000 | < 10 | 101 to 1000 | – | – | – | Clc1cnc2nc1Nc1cccc(c1)/C=C\c1cc(ccc1OCCN1CCCC1)N2 [Example 22, (14Z)-6-Chloro-17-[2-(pyrrolidin-1-yl)ethoxy]-2,4,8,22-tetraazatetracyclo[14.3.1.1^3,7.1^9,13]docosa-1(20),3(22),4,6,9(21),10,12,14,16,18-decaene] | – | – | –
– | > 10000 | < 10 | > 10000 | – | > 3000 | – | Clc1cnc2nc1Nc1cccc(c1)/C=C\c1cc(ccc1N1CCOCC1)N2 [Example 24, (14Z)-6-Chloro-17-(morpholin-4-yl)-2,4,8,22-tetraazatetracyclo[14.3.1.1^3,7.1^9,13]docosa-1(20),3(22),4,6,9(21),10,12,14,16,18-decaene] | – | – | –
> 10000 | > 10000 | < 10 | > 10000 | – | – | – | Clc1cnc2nc1Nc1cccc(c1)CCc1cc(ccc1N1CCOCC1)N2 [Example 25, 6-Chloro-17-(morpholin-4-yl)-2,4,8,22-tetraazatetracyclo[14.3.1.1^3,7.1^9,13]docosa-1(20),3(22),4,6,9(21),10,12,16,18-nonaene] | – | – | –
1000 to 10000 | – | < 10 | – | > 3000 | – | > 1000 | O[C@@H]1c2cccc(c2)Nc2nc(ncc2Cl)Nc2cccc(c2)[C@@H]1O [Example 26, (14R,15S)-6-chloro-2,4,8,22-tetraazatetracyclo[14.3.1.1^3,7.1^9,13]docosa-1(20),3(22),4,6,9(21),10,12,16,18-nonaene-14,15-diol] | – | – | –
< 10 | 101 to 1000 | 10 to 100 | < 10 | – | – | – | COc1cc(C2CCNCC2)c2cc1Nc1ncc(Cl)c(n1)Nc1cc(ccc1N(C)S(C)(=O)=O)CC2 [Example 28, 6-Chloro-10-(2-methanesulfonyl-methyl-amino)-17-(piperidin-4-yl)-19-methoxy-2,4,8,22-tetraazatetracyclo[14.3.1.1^3,7.1^9,13]docosa-1(20),3(22),4,6,9(21),10,12,16,18-nonaene Trifluoroacetate (1:1)] | – | – | –
10 to 100 | – | 101 to 1000 | 10 to 100 | > 3000 | – | – | COc1c2cc(c3c1CC[C@@H](N1CCOCC1)CC3)CCc1ccc(N(C)S(C)(=O)=O)c(c1)Nc1nc(ncc1Cl)N2 [Example 29, N-[(20S)-6-chloro-24-methoxy-20-(morpholin-4-yl)-2,4,8,27-tetraazapentacyclo[14.8.1.1^3,7.1^9,13.0^17,23]heptacosa-1(25),3(27),4,6,9(26),10,12,16,23-nonaen-10-yl]N-methylmethanesulfonamide] | – | – | –
– | – | 101 to 1000 | 1000 to 10000 | – | > 3000 | – | FC(F)(F)c1cnc2nc1Nc1cccc(c1)CCc1cccc(c1)N2 [Example 30, 6-Trifluoromethyl-2,4,8,22-tetraazatetracyclo[14.3.1.1^3,7.1^9,13]docosa-1(20),3(22),4,6,9(21),10,12,16,18-nonaene Trifluoroacetate (1:1)] | – | – | –
